Laboratory results taken from patent publication US20230357179A1, “RAF KINASE INHIBITORS AND METHODS OF USE THEREOF” (Deciphera Pharmaceuticals, LLC, priority 2021, published 2023).

Columns and labels:
C-Raf kinase = molecular target: T1, C-Raf kinase (Homo sapiens, UniProt P04049, Y340D/Y341D); assay: Biochemical assay for C-Raf.1 (coupled pyruvate kinase/lactate dehydrogenase); conditions: read-out: CRAF.1 IC50
T1 construct: Y340D,; GST (N); purchased Sigma
Procedure, shortened: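 C-Raf (0.43 nM) with MEK 30.1 nM and 1 mM ATP in Tris pH 7.5/MgCl2 buffer, activity coupled via PK/LDH to NADH oxidation (A340), 6 h at 30° C. Rates from 4–5 h window converted to % inhibition versus controls; IC50 by four-parameter fit, 1% DMSO.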

H2405 cells = assay: H2405 cell proliferation assay (1), resazurin, 96-well; format: cell-based; conditions: Homo sapiens, NCI-H2405, inhibition of cell proliferation
Procedure, shortened: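 This is a resazurin viability readout (excitation 540 nm, emission 600 nm) taken 5-6 h after adding 440 μM resazurin solution, giving IC50 values.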

B-Raf kinase = molecular target: T2, B-Raf kinase (Homo sapiens, UniProt P15056); assay: Biochemical assay for B-Raf.1 (coupled pyruvate kinase/lactate dehydrogenase); conditions: read-out: BRAF.1 IC50
T2 construct: GST (N); purchased Sigma
Procedure, shortened: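 NADH oxidation followed at 340 nm in a pyruvate kinase/lactate dehydrogenase-coupled assay with 0.13 nM B-Raf, 30.1 nM MEK substrate, 1 mM ATP, pH 7.5 Tris buffer, 1% DMSO. Monitored 6 h at 30 °C; rate taken from 4–5 h. IC50 from four-parameter sigmoidal fit.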

B-Raf (V600E) kinase = molecular target: T3, B-Raf (V600E) kinase (Homo sapiens, UniProt P15056, V600E); assay: Biochemical assay for B-Raf (V600E).1 (coupled pyruvate kinase/lactate dehydrogenase); conditions: read-out: BRAF V600E.1 IC50
T3 construct: B-Raf (V600E) residues 416-766 with a; GST (N); purchased SignalChem
Procedure, shortened: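 0.03 nM B-Raf(V600E) phosphorylating 30.1 nM MEK at 1 mM ATP, pH 7.5, coupled to PK/LDH, with NADH oxidation followed at 340 nm for 6 h at 30 °C. Rates taken from the 3-4 h window. IC50 from a four-parameter fit of percent inhibition.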

T1 sequence (P04049 307-648 Y340D/Y341D): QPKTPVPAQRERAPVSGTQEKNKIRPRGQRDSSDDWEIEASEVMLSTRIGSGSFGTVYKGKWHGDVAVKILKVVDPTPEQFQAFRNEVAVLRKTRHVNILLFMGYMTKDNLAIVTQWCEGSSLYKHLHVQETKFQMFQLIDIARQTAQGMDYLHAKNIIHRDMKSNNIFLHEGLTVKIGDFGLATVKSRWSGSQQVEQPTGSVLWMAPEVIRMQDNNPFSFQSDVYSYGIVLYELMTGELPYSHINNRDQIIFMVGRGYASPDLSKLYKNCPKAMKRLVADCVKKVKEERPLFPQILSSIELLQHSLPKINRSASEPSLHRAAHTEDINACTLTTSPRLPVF
T2 sequence (P15056 416-766): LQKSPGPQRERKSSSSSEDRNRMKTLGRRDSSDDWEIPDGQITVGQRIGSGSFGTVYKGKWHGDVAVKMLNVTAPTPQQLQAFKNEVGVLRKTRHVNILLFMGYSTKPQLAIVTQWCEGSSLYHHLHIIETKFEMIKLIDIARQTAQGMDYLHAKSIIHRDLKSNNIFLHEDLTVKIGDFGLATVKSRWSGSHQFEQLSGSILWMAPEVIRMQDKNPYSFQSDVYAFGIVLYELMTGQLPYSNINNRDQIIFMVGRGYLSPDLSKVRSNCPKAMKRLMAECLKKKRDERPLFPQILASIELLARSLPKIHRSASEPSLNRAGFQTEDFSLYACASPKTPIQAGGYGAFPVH
T3 sequence (P15056 416-766 V600E): as the sequence (P15056 416-766) above, with V185E counted along it

IC50 (C-Raf kinase) [nM] | IC50 (H2405 cells) [nM] | IC50 (B-Raf kinase) [nM] | IC50 (B-Raf (V600E) kinase) [nM] | SMILES
100 to 500 | – | > 1000 | ≤ 100 | COC(C)(C)CCNC(=O)Nc1ccc(C)c(-c2cc(-c3ccnc(NC(C)=O)c3)n(C)c(=O)c2)c1 [Example 60]
≤ 100 | 100 to 500 | ≤ 100 | ≤ 100 | COC(C)(C)CCNC(=O)Nc1cc(-c2cnnc(-c3ccnc(NC(=O)C4CC4)c3)c2)c(C)cc1F [Example 173]
> 1000 | 1000 to 10000 | > 1000 | 100 to 500 | CNC(=O)c1cc(-c2cnnc(-c3cc(NC(=O)N4CC[C@@H](OC)C4)ccc3C)c2)ccn1 [Example 181]
100 to 500 | 1000 to 10000 | 500 to 1000 | ≤ 100 | CNC(=O)c1cc(-c2cnnc(-c3cc(NC(=O)N4CC[C@@H](OC(F)(F)F)C4)ccc3C)c2)ccn1 [Example 182]
≤ 100 | ≤ 100 | ≤ 100 | ≤ 100 | Cc1ccc(NC(=O)N2CC[C@H](C(C)C)C2)cc1-c1cncc(-c2cc(NC(=O)C3CC3)ncn2)c1 [Example 221]
≤ 100 | 100 to 500 | ≤ 100 | ≤ 100 | COC(=O)Nc1cc(-c2cnnc(-c3cc(NC(=O)N4CCC(CC(F)(F)F)C4)ccc3C)c2)ccn1 (centres unmarked) [Example 186]
≤ 100 | 100 to 500 | ≤ 100 | 100 to 500 | Cc1ccc(NC(=O)N2CC[C@@H](C)C2)cc1-c1cncc(-c2cc(NC(=O)C3CC3)ncn2)c1 [Example 219]
≤ 100 | 1000 to 10000 | ≤ 100 | 100 to 500 | COC(=O)Nc1cc(-c2nccc(-c3cc(NC(=O)N4CCC(C(F)(F)F)C4)ccc3C)n2)ccn1 (centres unmarked) [Example 193]
100 to 500 | 1000 to 10000 | > 1000 | ≤ 100 | COC[C@H]1CCN(C(=O)Nc2cnc(C)c(-c3ccnc(-c4ccnc(NC(=O)OC)c4)c3)c2)C1 [Example 176]
100 to 500 | – | 500 to 1000 | > 1000 | COC(=O)Nc1cc(-c2cnnc(-c3cc(NC(=O)N4CCC(C(C)(C)O)C4)ccc3C)c2)ccn1 (centres unmarked) [Example 206]
≤ 100 | 100 to 500 | ≤ 100 | ≤ 100 | Cc1ccc(NC(=O)N2CCC(CC(F)(F)F)C2)cc1-c1cncc(-c2cc(NC(=O)C3CC3)ncn2)c1 (centres unmarked) [Example 194]
≤ 100 | 100 to 500 | ≤ 100 | ≤ 100 | Cc1ccc(NC(=O)N2CC[C@H](C(F)(F)F)C2)cc1-c1cccc(-c2cc(NC(=O)C3CC3)ncn2)c1 [Example 200]
≤ 100 | 100 to 500 | ≤ 100 | ≤ 100 | Cc1cc(F)c(NC(=O)N2CC[C@H](C(F)(F)F)C2)cc1-c1cncc(-c2cc(NC(=O)C3CC3)ncn2)c1 [Example 216]
100 to 500 | 1000 to 10000 | 500 to 1000 | ≤ 100 | CNC(=O)c1cc(-c2cnnc(-c3cc(NC(=O)N4CCC(C(C)(C)C)C4)ccc3C)c2)ccn1 (centres unmarked) [Example 180]
100 to 500 | 1000 to 10000 | > 1000 | ≤ 100 | COC[C@@H]1CCN(C(=O)Nc2cnc(C)c(-c3ccnc(-c4ccnc(NC(=O)OC)c4)c3)c2)C1 [Example 179]
≤ 100 | – | 100 to 500 | 500 to 1000 | Cc1ccc(NC(=O)N2CCC(CC(F)(F)F)C2)cc1-c1cncc(-c2cc(N)ncn2)c1 (centres unmarked) [Example 207]

Second part, the compound before the results:

SMILES | IC50 (C-Raf kinase) [nM] | IC50 (H2405 cells) [nM] | IC50 (B-Raf kinase) [nM] | IC50 (B-Raf (V600E) kinase) [nM]
COC(=O)Nc1cc(-c2cc(-c3cc(NC(=O)NCCC4(C)CC4)ccc3F)cc(OCCO)n2)ccn1 [Example 187] | ≤ 100 | 1000 to 10000 | ≤ 100 | 100 to 500
COC(=O)Nc1cc(-c2nc(OCCO)cc(-c3cc(NC(=O)NC4CC(C)(C)C4)cnc3C)n2)ccn1 [Example 174] | ≤ 100 | 500 to 1000 | 100 to 500 | ≤ 100
Cc1ccc(NC(=O)N2CCC3(CC3)C2)cc1-c1cncc(-c2cc(NC(=O)C3CC3)ncn2)c1 [Example 218] | ≤ 100 | 100 to 500 | ≤ 100 | ≤ 100
CNC(=O)c1cc(-c2cccc(-c3cc(NC(=O)NCCC(C)(C)OC)c(F)cc3C)c2)ccn1 [Example 72] | ≤ 100 | – | 100 to 500 | ≤ 100
Cc1cc(F)c(NC(=O)NCCC2(C)CC2)cc1-c1ccnc(-c2ccnc3c2CC(=O)N3)c1 [Example 79] | ≤ 100 | 500 to 1000 | ≤ 100 | ≤ 100
Cc1cc(F)c(NC(=O)NCCC2(C)CC2)cc1-c1cccc(-c2ccnc(NC(=O)C3CC3)c2)c1 [Example 64] | ≤ 100 | – | ≤ 100 | ≤ 100
Cc1cc(F)c(NC(=O)NCCC2(C)CC2)cc1-c1cc(OCC(C)(C)O)nc(-c2ccncc2)c1 [Example 34] | ≤ 100 | 100 to 500 | ≤ 100 | ≤ 100
Cc1cc(F)c(NC(=O)NC2CC(C)(C)C2)cc1-c1cc(OCCO)nc(-c2ccnc(NC(=O)C3CC3)c2)c1 [Example 80] | ≤ 100 | ≤ 100 | ≤ 100 | ≤ 100
CC(=O)Nc1cc(-c2cc(-c3cc(NC(=O)Nc4ccc(C(F)(F)F)cc4)cnc3C)ccn2)ccn1 [Example 48] | ≤ 100 | – | ≤ 100 | ≤ 100
CNC(=O)c1cc(-c2cc(-c3cc(NC(=O)Nc4ccnc(C(C)(C)C#N)c4)ccc3C)ccn2)ccn1 [Example 69] | ≤ 100 | 1000 to 10000 | ≤ 100 | ≤ 100
CC(=O)Nc1cc(-c2cc(-c3cc(NC(=O)NC4CCC(F)(F)CC4)c(F)cc3C)cc(OCCO)n2)ccn1 [Example 63] | ≤ 100 | – | ≤ 100 | ≤ 100
CC(=O)Nc1cc(-c2cc(-c3cc(NC(=O)NCCC4(C)CC4)ccc3C)cc(N3CCOCC3)n2)ccn1 [Example 57] | ≤ 100 | – | ≤ 100 | ≤ 100
Cc1ccc(NC(=O)NCCC(C)(C)C)cc1-c1ccnc(N2CCOCC2)c1 [Example 18] | ≤ 100 | – | ≤ 100 | ≤ 100
COC(C)(C)CCNC(=O)Nc1cc(-c2cccc(-c3ccnc(NC(C)=O)c3)c2)c(C)cc1F [Example 71] | ≤ 100 | – | ≤ 100 | ≤ 100
Cc1cc(F)c(NC(=O)NCCC2(C)CC2)cc1-c1cccc(-c2cc(NC(=O)C3CC3)ncn2)c1 [Example 65] | ≤ 100 | – | ≤ 100 | ≤ 100
Cc1ccc(NC(=O)N[C@H]2C[C@](C)(F)C2)cc1-c1cc(OCCO)nc(-c2ccnc(NC(=O)CN(C)C)c2)c1 [Example 50] | ≤ 100 | – | ≤ 100 | ≤ 100
CC(=O)Nc1cc(-c2cc(-c3cc(NC(=O)NCC45CC(F)(C4)C5)c(F)cc3C)cc(OCCO)n2)ccn1 [Example 52] | ≤ 100 | – | ≤ 100 | ≤ 100
CC(=O)Nc1cc(-c2cc(-c3cc(NC(=O)NCCC(C)(C)C#N)c(F)cc3C)cc(C3CC3)n2)ccn1 [Example 59] | ≤ 100 | – | ≤ 100 | ≤ 100
CC(=O)Nc1cc(-c2cc(-c3cc(NC(=O)NC4CC(C)(C)C4)c(F)cc3C)cc(OCCO)n2)ccn1 [Example 47] | ≤ 100 | – | ≤ 100 | ≤ 100
CNC(=O)c1cc(-c2cc(-c3cc(NC(=O)NC4CCCCC4)c(F)cc3C)cc(OCCO)n2)ccn1 [Example 205] | ≤ 100 | – | ≤ 100 | ≤ 100
CC(=O)Nc1cc(-c2cc(-c3cc(NC(=O)NC4CCCCC4)c(F)cc3C)cc(OCCO)n2)ccn1 [Example 53] | ≤ 100 | – | ≤ 100 | ≤ 100
Cc1ccc(NC(=O)N[C@H]2C[C@](C)(F)C2)cc1-c1cc(-c2ccnc(NC(=O)C3CC3)c2)nc(C2CC2)c1 [Example 61] | ≤ 100 | – | ≤ 100 | ≤ 100
Cc1ccc(NC(=O)Nc2ccnc(C(C)(C)C#N)c2)cc1-c1ccnc(-c2ccnc(C(=O)NC3CC3)c2)c1 [Example 68] | ≤ 100 | – | ≤ 100 | ≤ 100
CC(=O)Nc1cc(-c2cc(-c3cc(NC(=O)NCCC4(C)CC4)c(F)cc3C)cc(C)n2)ccn1 [Example 55] | ≤ 100 | – | ≤ 100 | ≤ 100
COC(C)(C)CCNC(=O)Nc1ccc(C)c(-c2cc(-c3cnn(C)c3)nc(N3CCOCC3)c2)c1 [Example 38] | ≤ 100 | – | ≤ 100 | ≤ 100
CC(=O)Nc1cc(-c2cc(-c3cc(NC(=O)NCCC4(C(F)(F)F)CC4)c(F)cc3C)cc(C3CC3)n2)ccn1 [Example 54] | ≤ 100 | – | ≤ 100 | ≤ 100
CC(=O)Nc1cc(-c2cc(-c3cc(NC(=O)NCCC4(C)CC4)c(F)cc3C)cc(C3CC3)n2)ccn1 [Example 51] | ≤ 100 | – | ≤ 100 | ≤ 100
